Results as given in ChEMBL document CHEMBL4725446, “Development of a Raltegravir-based Photoaffinity-Labeled Probe for Human Immunodeficiency Virus-1 Integrase Capture” (ACS Med Chem Lett, 2020).
Active and inactive are the calls of the source. No cut-off for these calls is given here.

How the values were obtained:
[1] = Inhibition of HIV1 integrase assessed as reduction in LEDGF-independent integration pre-incubated for 1 hr before addition of DNA donor and acceptor substrate and measured after 90 mins by HTRF assay; set-up: species or system Human immunodeficiency virus 1
[2] = test system: Human immunodeficiency virus 1; assay: Binding affinity to HIV1 integrase assessed as induction of cross-linking at peptide region 164ELK166 at 7.5 to 25 uM in presence of UV illumination for 15 mins in presence of trypsin by LC-MS analysis; settings: dose microM 7.5-25, time 15.0 min
[3] = test system: Human immunodeficiency virus 1; assay: Binding affinity to HIV1 integrase assessed as conjugation of enzyme at 7.5 to 25 uM in presence of UV illumination for 15 mins by SDS-PAGE analysis based photoaffinity labelling method; settings: dose microM 7.5-25, time 15.0 min
[4] = test system: Human immunodeficiency virus 1; assay: Binding affinity to HIV1 integrase assessed as induction of enzyme molecular weight shift at 7.5 to 25 uM in presence of UV illumination for 15 mins by LC-MS analysis; settings: dose microM 7.5-25, time 15.0 min
[5] = test system: Human immunodeficiency virus 1; assay: Binding affinity to HIV1 integrase assessed as induction of cross-linking at peptide region 42EIVASCDK49 at 7.5 to 25 uM in presence of UV illumination for 15 mins in presence of trypsin by LC-MS analysis; settings: dose microM 7.5-25, time 15.0 min

Row | IC50 [1] | Activity [2] | Activity [3] | Activity [4] | Activity [5] | SMILES
1 | 58 nM | – | – | – | – | Cc1nnc(C(=O)NC(C)(C)c2nc(C(=O)NCc3ccc(F)cc3)c(O)c(=O)n2C)o1 [RALTEGRAVIR]
2 | 2300 nM | Active | Active | Active | Active | CC(C)c1nc(C(=O)NCc2ccc(C(=O)c3ccccc3)cc2)c(O)c(=O)n1C
3 | 73000 nM | – | – | – | – | CC(C)c1nc(C(=O)O)c(O)c(=O)n1C
